Legend:
[1] = Caco-2 cell permeability assay; type: in vitro ADME; conditions: human; for Papp at 90 min, 10 μM: Caco-2, Papp
Caco‐2 cells = experiment: Caco-2 cell permeability assay; type: in vitro ADME; conditions: Caco‐2, 10 μM
MLL4 complex = MLL4 complex (Homo sapiens, UniProt Q9UMN6); experiment: HotSpot Methyltransferase Profiling assay, MLL4 complex; type: biochemical
SETD2 = SETD2 (Homo sapiens, UniProt Q9BYW2); experiment: HotSpot Methyltransferase Profiling assay, SETD2; type: biochemical
Chain of SETD2 (Q9BYW2 whole entry): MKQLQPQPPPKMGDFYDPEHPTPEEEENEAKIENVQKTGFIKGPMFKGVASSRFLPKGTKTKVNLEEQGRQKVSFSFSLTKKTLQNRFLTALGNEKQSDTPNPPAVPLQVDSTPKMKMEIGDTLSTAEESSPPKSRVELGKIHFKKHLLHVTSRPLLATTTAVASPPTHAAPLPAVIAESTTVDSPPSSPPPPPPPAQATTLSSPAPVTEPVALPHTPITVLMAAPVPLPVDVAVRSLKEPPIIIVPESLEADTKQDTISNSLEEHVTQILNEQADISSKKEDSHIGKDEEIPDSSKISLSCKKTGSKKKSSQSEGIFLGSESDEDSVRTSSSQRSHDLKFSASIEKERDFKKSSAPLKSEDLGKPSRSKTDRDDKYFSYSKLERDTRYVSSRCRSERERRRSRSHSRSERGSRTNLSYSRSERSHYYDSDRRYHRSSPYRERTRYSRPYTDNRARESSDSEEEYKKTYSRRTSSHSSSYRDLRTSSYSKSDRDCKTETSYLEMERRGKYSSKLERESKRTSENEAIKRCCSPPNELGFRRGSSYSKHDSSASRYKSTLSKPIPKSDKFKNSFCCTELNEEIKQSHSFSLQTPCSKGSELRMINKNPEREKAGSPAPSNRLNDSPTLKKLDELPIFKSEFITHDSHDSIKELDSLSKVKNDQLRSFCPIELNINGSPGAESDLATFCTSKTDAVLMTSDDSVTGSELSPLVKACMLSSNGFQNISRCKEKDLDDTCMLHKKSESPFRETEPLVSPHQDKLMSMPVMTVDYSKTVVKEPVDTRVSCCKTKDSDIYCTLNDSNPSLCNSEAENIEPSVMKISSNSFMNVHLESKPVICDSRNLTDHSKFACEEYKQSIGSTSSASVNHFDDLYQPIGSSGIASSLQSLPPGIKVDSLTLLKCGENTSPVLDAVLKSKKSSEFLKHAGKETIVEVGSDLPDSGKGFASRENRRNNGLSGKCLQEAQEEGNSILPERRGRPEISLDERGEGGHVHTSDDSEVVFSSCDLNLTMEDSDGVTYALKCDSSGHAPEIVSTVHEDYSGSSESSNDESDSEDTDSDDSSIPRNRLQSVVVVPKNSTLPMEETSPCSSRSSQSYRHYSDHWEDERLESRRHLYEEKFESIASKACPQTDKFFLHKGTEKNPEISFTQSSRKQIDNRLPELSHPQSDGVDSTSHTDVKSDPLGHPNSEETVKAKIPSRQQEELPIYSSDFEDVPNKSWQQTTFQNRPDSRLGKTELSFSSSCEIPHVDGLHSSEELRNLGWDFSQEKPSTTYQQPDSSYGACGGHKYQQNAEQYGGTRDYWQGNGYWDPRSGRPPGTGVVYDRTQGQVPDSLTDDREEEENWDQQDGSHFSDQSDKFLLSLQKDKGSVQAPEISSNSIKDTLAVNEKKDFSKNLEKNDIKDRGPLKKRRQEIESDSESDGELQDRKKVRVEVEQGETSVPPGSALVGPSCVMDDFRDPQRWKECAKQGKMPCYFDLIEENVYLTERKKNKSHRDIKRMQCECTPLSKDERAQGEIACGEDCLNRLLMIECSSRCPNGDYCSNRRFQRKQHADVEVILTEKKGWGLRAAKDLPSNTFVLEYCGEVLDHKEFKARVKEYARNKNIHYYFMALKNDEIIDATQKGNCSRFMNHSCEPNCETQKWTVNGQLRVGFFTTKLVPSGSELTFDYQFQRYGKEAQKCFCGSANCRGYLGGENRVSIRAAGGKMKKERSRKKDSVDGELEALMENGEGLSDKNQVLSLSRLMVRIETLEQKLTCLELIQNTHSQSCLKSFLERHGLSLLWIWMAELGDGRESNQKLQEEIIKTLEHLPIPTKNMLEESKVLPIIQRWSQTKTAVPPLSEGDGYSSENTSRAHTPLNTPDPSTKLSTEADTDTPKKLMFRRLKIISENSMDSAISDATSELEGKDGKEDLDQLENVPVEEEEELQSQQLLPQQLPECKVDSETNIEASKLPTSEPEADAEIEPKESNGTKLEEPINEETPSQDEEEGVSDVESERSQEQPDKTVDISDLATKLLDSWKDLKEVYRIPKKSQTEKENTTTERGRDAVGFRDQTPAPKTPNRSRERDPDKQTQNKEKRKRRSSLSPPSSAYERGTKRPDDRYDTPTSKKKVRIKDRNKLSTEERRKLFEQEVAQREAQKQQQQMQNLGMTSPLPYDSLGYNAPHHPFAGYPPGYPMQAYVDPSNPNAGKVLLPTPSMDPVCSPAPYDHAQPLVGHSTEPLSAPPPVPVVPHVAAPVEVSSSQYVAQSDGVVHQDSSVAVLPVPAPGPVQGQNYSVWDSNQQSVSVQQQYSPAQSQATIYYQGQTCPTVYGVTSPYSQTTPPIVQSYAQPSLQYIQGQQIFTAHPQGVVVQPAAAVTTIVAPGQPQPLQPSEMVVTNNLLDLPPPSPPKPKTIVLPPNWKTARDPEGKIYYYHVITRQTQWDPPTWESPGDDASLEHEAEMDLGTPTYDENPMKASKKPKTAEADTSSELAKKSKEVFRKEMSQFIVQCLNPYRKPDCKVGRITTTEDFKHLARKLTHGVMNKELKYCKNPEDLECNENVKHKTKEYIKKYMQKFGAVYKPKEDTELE

PRDM9 = PRDM9 (Homo sapiens, UniProt Q9NQV7); experiment: HotSpot Methyltransferase Profiling assay, PRDM9; type: biochemical
Chain of PRDM9 (Q9NQV7 whole entry): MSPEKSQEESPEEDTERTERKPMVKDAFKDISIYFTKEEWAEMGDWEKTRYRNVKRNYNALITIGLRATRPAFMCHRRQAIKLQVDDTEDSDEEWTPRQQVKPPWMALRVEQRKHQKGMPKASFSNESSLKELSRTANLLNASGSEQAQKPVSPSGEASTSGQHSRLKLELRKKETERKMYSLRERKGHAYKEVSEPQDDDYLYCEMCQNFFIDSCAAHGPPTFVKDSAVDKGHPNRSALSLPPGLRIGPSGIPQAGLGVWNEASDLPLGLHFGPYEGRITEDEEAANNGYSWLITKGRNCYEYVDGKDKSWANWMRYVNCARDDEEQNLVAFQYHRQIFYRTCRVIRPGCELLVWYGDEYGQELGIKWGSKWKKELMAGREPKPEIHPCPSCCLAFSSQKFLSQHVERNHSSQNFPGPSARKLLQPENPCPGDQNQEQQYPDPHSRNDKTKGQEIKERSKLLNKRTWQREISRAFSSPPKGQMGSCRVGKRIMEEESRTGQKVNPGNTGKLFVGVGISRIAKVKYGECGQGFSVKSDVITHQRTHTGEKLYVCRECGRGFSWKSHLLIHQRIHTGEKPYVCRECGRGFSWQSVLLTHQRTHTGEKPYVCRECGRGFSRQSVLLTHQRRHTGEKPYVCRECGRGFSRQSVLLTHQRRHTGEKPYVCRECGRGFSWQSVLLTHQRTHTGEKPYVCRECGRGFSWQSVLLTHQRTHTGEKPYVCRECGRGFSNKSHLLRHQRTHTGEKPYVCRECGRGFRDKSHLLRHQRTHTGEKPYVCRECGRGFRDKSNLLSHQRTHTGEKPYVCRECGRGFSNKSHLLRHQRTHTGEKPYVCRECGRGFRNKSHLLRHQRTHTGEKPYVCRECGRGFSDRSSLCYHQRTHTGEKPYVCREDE

Chain of MLL4 complex (Q9UMN6 2490-2715): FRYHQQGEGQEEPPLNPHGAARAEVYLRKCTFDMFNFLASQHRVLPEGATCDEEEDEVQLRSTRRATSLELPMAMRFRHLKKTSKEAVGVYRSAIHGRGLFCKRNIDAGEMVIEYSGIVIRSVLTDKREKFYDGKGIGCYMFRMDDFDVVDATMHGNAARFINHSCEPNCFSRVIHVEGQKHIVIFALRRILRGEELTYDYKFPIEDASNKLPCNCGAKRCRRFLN
Chain of MLL4 complex (Q9C005 whole entry, further chain): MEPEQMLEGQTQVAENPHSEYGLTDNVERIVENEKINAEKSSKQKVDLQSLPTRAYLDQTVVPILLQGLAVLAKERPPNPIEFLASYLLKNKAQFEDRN
Chain of MLL4 complex (Q15291 whole entry, further chain): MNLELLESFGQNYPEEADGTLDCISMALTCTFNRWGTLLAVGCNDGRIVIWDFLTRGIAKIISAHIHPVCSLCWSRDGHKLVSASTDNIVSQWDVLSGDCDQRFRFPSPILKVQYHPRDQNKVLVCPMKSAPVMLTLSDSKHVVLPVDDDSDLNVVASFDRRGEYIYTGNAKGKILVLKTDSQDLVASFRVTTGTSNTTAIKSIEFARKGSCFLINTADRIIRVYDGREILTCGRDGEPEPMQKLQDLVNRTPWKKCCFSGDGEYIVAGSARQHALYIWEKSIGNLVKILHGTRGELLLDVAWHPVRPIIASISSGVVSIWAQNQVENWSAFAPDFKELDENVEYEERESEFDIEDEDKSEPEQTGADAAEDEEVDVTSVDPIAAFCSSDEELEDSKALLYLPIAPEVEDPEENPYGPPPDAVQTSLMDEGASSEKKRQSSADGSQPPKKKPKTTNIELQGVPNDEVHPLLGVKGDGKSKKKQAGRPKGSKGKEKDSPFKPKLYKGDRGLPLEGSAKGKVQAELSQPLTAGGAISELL
Chain of MLL4 complex (Q9UBL3 96-628, further chain): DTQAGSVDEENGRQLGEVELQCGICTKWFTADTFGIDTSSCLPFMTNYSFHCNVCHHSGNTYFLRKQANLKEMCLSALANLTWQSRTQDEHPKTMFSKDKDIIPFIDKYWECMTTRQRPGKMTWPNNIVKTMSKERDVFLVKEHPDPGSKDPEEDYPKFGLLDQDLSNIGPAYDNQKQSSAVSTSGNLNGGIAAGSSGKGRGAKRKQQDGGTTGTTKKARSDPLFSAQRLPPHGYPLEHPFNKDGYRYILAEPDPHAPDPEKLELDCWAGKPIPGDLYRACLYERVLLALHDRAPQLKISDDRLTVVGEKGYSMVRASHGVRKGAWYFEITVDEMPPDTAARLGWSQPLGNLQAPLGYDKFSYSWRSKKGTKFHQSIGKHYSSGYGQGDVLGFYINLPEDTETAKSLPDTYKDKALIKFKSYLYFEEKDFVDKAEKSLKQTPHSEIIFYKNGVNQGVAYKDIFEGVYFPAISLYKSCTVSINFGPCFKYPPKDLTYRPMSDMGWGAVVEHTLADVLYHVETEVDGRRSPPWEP

efflux ratio at 90 min, 10 μM ([1]; Caco-2) | Papp at 90 min, 10 μM ([1]; Replicate 1, Direction A‐B) | Papp at 90 min, 10 μM ([1]; Replicate 1, Direction B‐A) | Papp at 90 min, 10 μM ([1]; Replicate 2, Direction A‐B) | Papp at 90 min, 10 μM ([1]; Replicate 2, Direction B‐A) | Papp(B−A)/Papp(A−B) (efflux ratio) (Caco‐2 cells) | IC50 (MLL4 complex) | IC50 (SETD2) | Structure (SMILES) | IC50 (PRDM9)
62.9 | 0.3 ×10⁻⁶ cm/s | 18.1 ×10⁻⁶ cm/s | 0.2 ×10⁻⁶ cm/s | 17.5 ×10⁻⁶ cm/s |  |  |  | CC[C@H]1OC(=O)[C@H](C)[C@@H](O[C@H]2C[C@@](C)(OC)[C@@H](O)[C@H](C)O2)[C@H](C)[C@@H](O[C@@H]2O[C@H](C)C[C@H](N(C)C)[C@H]2O)[C@](C)(O)C[C@@H](C)C(=O)[C@H](C)[C@@H](O)[C@]1(C)O [Erythromycin] | 
 | 33.7 ×10⁻⁶ cm/s | 34.7 ×10⁻⁶ cm/s | 31.4 ×10⁻⁶ cm/s | 33.3 ×10⁻⁶ cm/s | 1.1 |  |  | COCCc1ccc(OCC(O)CNC(C)C)cc1 (stereo not shown) [Metoprolol] | 
 |  |  |  |  |  | 2.11 µM | 7.39 µM | Nc1ncnc2c1ncn2[C@@H]1O[C@H](CSCC[C@H](N)C(=O)O)[C@@H](O)[C@H]1O [SAH, S‐(5′‐adenosyl)‐ʟ‐homocysteine] | 
 |  |  |  |  |  |  |  | CN1C(=O)[C@@]23C[C@]4([C@]56C[C@@]78SS[C@@](CO)(C(=O)N7[C@H]5Nc5ccccc56)N(C)C8=O)c5ccccc5N[C@@H]4N2C(=O)[C@]1(CO)SS3 [chaetocin] | 3.98 µM

Source: paper PMC8518639 (Chemmedchem, 2021)
